Data set [1] in a line: Plasma/blood level after oral administration. It is filed as in vivo. The note with it: treated sheep. An excerpt:
The Applicant has addressed the problems of the prior art by identifying a natural compound present in ivy (Hedera) that is effective at treating helminth infestations in a mammal. The natural compound is α-hederin, a water soluble pentacyclic triterpenoid saponin. The compound is quite a large molecule and would not be anticipated to be absorbed from the rumen following oral administration, but would be expected to be absorbed from the small intestine. […] This is highly surprising given the low plasma levels of α-hederin in treated sheep.
IVL-11 is a relatively large particle and so would not be anticipated to be absorbed from the rumen following oral administration. Instead, absorption from the small intestine would be predicted.

Data set [2] in a line: Stability of α-hederin solutions on storage (visual). It is filed as physicochemical. The note with it: for stability of solution: 10 wt.% α-hederin in 85.5 wt.% 1,2-Propanediol and 4.5 wt.% Benzyl alcohol.
In a further data set the test system is adult fluke. In words: In-vivo efficacy study: fluke counts at post mortem in infected sheep after oral treatment, compared with untreated control sheep. The note with it: 50 mg/kg. On the procedure:
Four sheep infected with adult fluke were treated with an IVL-11 oral solution formulation of Table 1: Table 1
The solution was orally administered to the sheep to provide a dosage of α-hederin of 50 mg/kg and then worm counts compared to counts in untreated control sheep. Table 2: summary of efficacy following treatment of four sheep with IVL-11 orally at 50mg/kg compared with fluke counts in untreated control sheep

The nature of data set [3]: Solubility of α-hederin in 1,2-propanediol. It is filed as physicochemical.

As for α-hederin [IVL-11], the “plasma / blood levels following administration in vivo” value in data set [1] was “low”. Also, the “stability (appearance) of solution in 1,2-propanediol” value in data set [2] (5 % solution, 13 days at room temperature) was “cloudy at the top”; in data set [2] (10 % solution, 13 days at room temperature) it was “became cloudy”; in data set [2] (35°C, over 3 weeks), “no visible changes”. The stability of solution result in data set [2] (6 months at 5°C) and in data set [2] (6 months at room temperature) was “stable” in each case. For the same substance, the “Arithmetic mean number of fluke at post mortem” value in the data set with adult fluke (oral solution, 4 sheep) is recorded as 83. For the same substance, the “% efficacy (reduction in average fluke numbers compared to the control sheep)” value in the data set with adult fluke (oral, vs untreated control sheep) came to 21.6%. The “solubility in 1,2-propanediol” value in data set [3] (5% α-hederin in 1,2-propanediol) and in data set [3] (10% α-hederin in 1,2-propanediol) was “soluble” throughout.

The values are drawn from EP3939596A1, “A COMPOSITION FOR TREATING HELMINTH INFESTATION IN A MAMMAL” (Bimeda Animal Health Limited, priority 2020, dated 2022).
